The structures appear in SMILES notation.

We go through 2 molecules from doi:10.1101/2021.08.31.458471v1 (biorxiv, 2021).

Experiment [1] has as its target McpA signaling domain (McpAc) (Bacillus subtilis, UniProt P39214). Kind of experiment: biochemical.
In a further experiment the target is McpB signaling domain (Bacillus subtilis, UniProt P39215). The following applies: 20 µM protein, 2 mM benzene, PBS in D2O pH 7.4, 298 K.
Chain of McpB signaling domain (P39215 359-662): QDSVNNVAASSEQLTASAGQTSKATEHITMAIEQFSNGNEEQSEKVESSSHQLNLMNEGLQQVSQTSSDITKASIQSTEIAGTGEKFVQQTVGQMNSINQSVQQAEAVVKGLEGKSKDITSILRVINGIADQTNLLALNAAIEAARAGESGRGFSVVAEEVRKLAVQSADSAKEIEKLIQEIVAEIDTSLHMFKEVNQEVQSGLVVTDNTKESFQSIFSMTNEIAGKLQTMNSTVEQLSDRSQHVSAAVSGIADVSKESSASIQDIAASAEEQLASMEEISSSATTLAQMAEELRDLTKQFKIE

Chain of McpA signaling domain (McpAc) (P39214 359-661): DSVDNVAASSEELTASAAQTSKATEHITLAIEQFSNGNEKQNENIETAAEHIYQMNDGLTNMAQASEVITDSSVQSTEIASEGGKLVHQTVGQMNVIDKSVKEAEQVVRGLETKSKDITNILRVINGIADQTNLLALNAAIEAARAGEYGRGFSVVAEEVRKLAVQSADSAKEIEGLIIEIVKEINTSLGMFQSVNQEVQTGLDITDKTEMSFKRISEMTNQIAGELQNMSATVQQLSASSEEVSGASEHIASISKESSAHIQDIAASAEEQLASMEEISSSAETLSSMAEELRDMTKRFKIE

In turn, `Oc1ccccc1` [phenol] showed a Kd in experiment [1] of 4.8 mM.

In the case of `c1ccccc1` [benzene], the STD-AF at McpB signaling domain was found to be 16.4%.
